From patent US20090118365A1, “Use of Prodrugs of GABA B Agonists for Treating Neuropathic and Musculoskeletal Pain” (XenoPort, Inc, priority 2007, published 2009)

Assays:
[1] = rat, in vivo, 10 mg
Protocol: Rats were obtained commercially and were pre-cannulated in the both the ascending colon and the jugular vein. Animals were conscious at the time of the experiment. All animals were fasted overnight and until 4 hours post-dosing. […] Blood samples were analyzed as described according to the following procedure. […]
An API 2000 LC/MS/MS spectrometer equipped with Shimadzu 10ADVp binary pumps and a CTC HTS-PAL autosampler was used in the analysis. […] The peaks were integrated using Analyst 1.2 quantitation software.

[2] = male, cynomolgus monkey, in vivo
Description: The following method can be used to determine the oral bioavailability of GABAB agonist prodrugs provided by the present disclosure in Cymologous monkeys, and therefore the appropriateness of the GABAB agonist prodrugs for use in oral sustained release dosage forms for treating neuropathic and musculoskeletal pain.
All plasma samples were subsequently analyzed for (R)-baclofen and intact prodrug using the LC/MS/MS assay described above.

[3] = in vivo; cited from earlier work

Row | SMILES | maximum plasma concentration of (R)-baclofen (Cmax) relative to colonic administration of (R)-baclofen itself [1] | oral bioavailability as (R)-baclofen [2] | elimination half-life [3]
1 | CC(C)C(=O)O[C@@H](OC(=O)NC[C@H](CC(=O)O)c1ccc(Cl)cc1)C(C)C [compound (4), (3R)-4-{[(1S)-2-methyl-1-(2-methylpropanoyloxy)propoxy]carbonylamino}-3-(4-chlorophenyl)butanoic acid] | > 2 fold | greater than 80% | 
2 | NCC(CC(=O)O)c1ccc(Cl)cc1 (racemic) [baclofen, (±)-4-Amino-3-(4-chlorophenyl)butanoic acid] |  |  | 3 to 4 h
